In patent publication US6662039B2, “Optical probing of neuronal connections with fluorescent indicators” (The Trustees of Columbia University in the City of New York, priority 1999, dated 2003):

System: neurons in visual cortex brain slices
Assay: Optical probing of cortical brain slices made more excitable by channel/receptor blockers
Type: cell-based, mouse
Conditions: for effect on number of possible postsynaptic targets (follower cells): bath application to fura-2 AM loaded mouse cortical slice, trigger cell stimulated; for epileptiform events in imaged neurons: most or all imaged neurons show action-potential induced increases in [Ca2+]i
Text: This method consist of (i) loading (staining) populations of neurons in brain slices with fluorescent indicators such as fura-2 AM and (ii) imaging dozens of loaded cells during whole-cell stimulation of a particular neuron (the “trigger” cell). On-line analysis is used to determine if any other neurons (the “follower” cells) show a calcium transient time-locked to the firing of the “trigger” cell. After detection, a chosen “follower” cell is patched and a similar experiment is repeated. Histological processing is carried out on the fixed specimens. A detailed explanation of the experiment and some representative results follows.
Brain slices are made from the primary visual cortex of postnatal day (PND) 12-23 C57BL6 mice. Mice are anesthetized with Ketamine/Xylazine (120 mg/kg, 10 mg/kg respectively). Animals are decapitated and the brain is quickly removed and placed into cold ACSF (126 mM NaCl, 3 mM KCl, 26 mM NaHCO3, 1 mM NaH2PO4, 2 mM CaCl2, 2 mM MgSO4, 10 mM Dextrose, bubbled with 95% O2/5% CO2). Coronal slices, 300-400 μm thick, are cut using a vibratome (TPI) and are incubated at 35° C. for 30 minutes in a submerged slice chamber. Slices are then incubated at room temperature (˜25° C.) for up to 12 hours.
After loading, slices are placed in a submerged recording chamber mounted on the stage of an upright microscope (BX50WI, Olympus). All experiments are done at room temperature. Fluorescent images of fura-2 loaded neurons are taken with a cCCD camera (Micromax, Princeton Instruments) equipped with a frame transfer chip (EEV 512, Kodak) or an hexagonal photodiode array with 464 pixels (PDA, Universal Imaging). To maximize the number of imaged neurons a 20×/0.5 NA water immersion objective (Olympus) is used. Image acquisition is typically 25 msec/frame and each pixel is digitized at 12 bits. Camera images are acquired, stored and analyzed using a Macintosh 7100 (Apple Computers, Cupertino, Calif.) computer and IPLab software (Signal Analytics). Signals from the photodiodes are amplified, sampled at 1.6 KHz and analyzed using Neuroplex (Universal Imaging). For imaging of the calcium transients a 380 nm excitation, a 395 nm dichroic and a 510 emission filter (Chroma) are used. Also imaged is each neuron at the isosbestic excitation of 365 nm during every experiment to assess the approximate [Ca^2+]i and therefore monitor the health of the cells. The 365 nm images are used to estimate the intracellular concentration of fura-2, using the fluorescence of the patched cell (which has a known concentration of fura-2) as a calibration. For most neurons, after correcting for background fluorescence and focus, an intracellular concentration of indicator of approximately 40-50 μM was estimated. These values, obtained from experiments with good loading at PND 12-23, obviously depend crucially on many factors that affect loading, such as age, incubation time and health of the slices. Changes in fluorescence in multiple cells were analyzed with a program written in IPLab. The fluorescence change over time is defined as ΔF/F=(F0−F1)/(F0) and, for the analysis of the AM loaded cells fluorescence change was defined as ΔF/F=((F0−-B0)−(F1−B1))/(F0−B0), expressed in %, where F1 and B are fluorescence in the somata and background fluorescence, respectively, at any given timepoint, and F0 and B0 are fluorescence and background at the beginning of the experiment.
To maximize the effect of the stimulation of the trigger cell, different methods of enhancing synaptic release and also of making postsynaptic cells more excitable have been experimented with. Currently used is 3 mM [Ca^2+]e in our ACSF (artificial cerebrospinal fluid) because high [Ca^2+]e decreases synaptic failures and, by increasing the [Ca^2+] gradient between the inside and outside of the cell, it also produces bigger action-potential induced calcium signals. […]

Row | Compound | effect on number of possible postsynaptic targets (follower cells) | epileptiform events in imaged neurons
1 | Nc1ccncc1 [4-AP] | increases the number of possible postsynaptic targets | produces spontaneous or evoked epileptiform events
2 | CN1CCc2cc3c(cc2[C@H]1[C@@H]1OC(=O)c2c1ccc1c2OCO1)OCO3 [Bicuculine] | increases the number of possible postsynaptic targets | produces spontaneous or evoked epileptiform events
3 | CC[N+](CC)(CC)CC [TEA] | increases the number of possible postsynaptic targets | produces spontaneous or evoked epileptiform events
